“Also recorded” adds a separate entry of the source. Read-outs that look alike come from different tables or passages of the source.
Key:
[1] = test system: Escherichia coli 0157:H7; assay: Real time PCR of live, heat-killed or isopropyl alcohol-killed E. coli after treatment with a DNA-binding chemical; assay type: cell-based; settings: for PCR amplification product from live versus killed E. coli: Gel Red 3x stock; for Blocking of amplification of DNA from dead bacteria: dead E. coli; for Penetration into E. coli and blocking of PCR amplification: recommended concentration
Protocol: (§1) Various amounts of Gel Red™ can be added to the isolated microbe. Originally the GelRed™ is available at 10,000× solution in water or 3× staining solution in H2O (working solution). The base for the concentration calculation refers to working solution or 3×. In FIGS. 2-4 various dilutions were reported (1:1, 1:10 and 1:100). “1:1” means where 1.0 μl of commercially available Gel Red™ at 3× is diluted in 1.0 μl diluent (such as water). “1:10” means where 1.0 μl of commercially available Gel Red™ at 3× is diluted in 10.0 μl diluent (such as water). “1:100” means where 1.0 μl of commercially available Gel Red™ at 3× is diluted in 100.0 μl diluent (such as water).
(§2) Bacterial species included in these experiments were E. coli, L. monocytogens, and S. Typhimurium. Fresh culture was suspended in a buffer and placed in three tubes (live bacteria, heat-killed and isopropanol-killed bacteria). The first tube contained live bacteria without treatment, and the second and the third tube were inactivated by heat and isopropanol, respectively. The DNA-intercalating chemicals used in this experiment were PMA, EMA and other DNA-binding chemicals, which were not previously reported. The experiments were performed to study the application of sample modification with DNA-binding chemicals to enable PCR to amplify samples only from viable bacteria. […] The bacterial sample was modified with PMA or combined with high voltage light exposure to assess the combined treatment effect.
A sample containing E. coli was tested. One sample included live E. coli. Another sample included heat killed E. coli and another sample contained isopropyl alcohol killed E. coli. In FIG. 2, Compound CE stands for Gel Red™. Real time PCR was run on the samples. […] The Gel Red™ was too highly concentrated that it penetrated all of E. coli even in the “live sample. […] The Gel Red™ was too weak to get into the intact cell membrane of the live E. coli.
In this reaction, the amplification was run using primers that targeted the per gene (which encodes perosamine synthetase).

[2] = test system: Listeria monocytogenes; assay: Real time PCR of live, heat-killed or isopropyl alcohol-killed L. monocytogenes after treatment with a DNA-binding chemical; assay type: cell-based; settings: for PCR product from live versus killed L. monocytogenes: Gel Red 3x stock; for Blocking of amplification of DNA from dead bacteria: dead L. monocytogens
Protocol: as §1, §2
(§3) A sample containing L. monocytogenes was tested. One sample included live L. monocytogenes. Another sample included heat killed L. monocytogenes and another sample contained isopropyl alcohol killed L. monocytogenes. In FIG. 3, Compound CE stands for Gel Red™. Real time PCR was run on the samples.
In this reaction, the amplification was run using primers that targeted the Hly 9125 gene (which encodes listeriolysin O protein).

[3] = test system: Salmonella Typhimurium; assay: Real time PCR of live, heat-killed or isopropyl alcohol-killed Salmonella Typhimurium after treatment with a DNA-binding chemical; assay type: cell-based; settings: for PCR product from live versus killed Salmonella Typhimurium: Gel Red 3x stock; for Blocking of amplification of DNA from dead bacteria: dead S. typhimurium
Protocol: as §1, §2
as §3, with “Salmonella Typhimurium” for “L. monocytogenes”, “Salmonella Typhimurium.” for “L. monocytogenes.”, “4,” for “3,”
In this reaction, the amplification was run using primers that targeted the ycdC gene (which encodes a putative transcriptional repressor protein).

[4] = cited from earlier work
[5] = cited from earlier work; remark: listed apart in the source
[6] = test system: bacterial sample; assay: PMA sample modification combined with high voltage light exposure, PCR; assay type: cell-based
Source text: as §2

[7] = concentrations well above the working concentrations used in gel staining

Compound: Nc1ccc2c(c1)c(-c1ccccc1)[n+](CCCCCC(=O)NCCCOCCOCCOCCCNC(=O)CCCCC[n+]1c(-c3ccccc3)c3cc(N)ccc3c3ccc(N)cc31)c1cc(N)ccc21.[I-].[I-] [Gel Red™, 5, 5′-(6, 22-dioxo-11, 14, 17-trioxa-7, 21-diazaheptacosane-1, 27-diyl)bis(3,8-diamino-6-phenylphenanthridin-5-ium) iodide]
- PCR amplification product from live versus killed E. coli ([1]; dilution 1:1): no PCR products even in the sample containing the live bacteria
- PCR amplification product from live versus killed E. coli ([1]; dilution 1:10): signal from live but not from killed samples
- PCR amplification product from live versus killed E. coli ([1]; dilution 1:100): amplification products in all samples, including the killed bacteria samples
- PCR product from live versus killed L. monocytogenes ([2]; dilution 1:1): no PCR products
- PCR product from live versus killed L. monocytogenes ([2]; dilution 1:10): signal from live but not from killed samples
- PCR product from live versus killed L. monocytogenes ([2]; dilution 1:100): signal from live but not from killed samples
- PCR product from live versus killed Salmonella Typhimurium ([3]; dilution 1:1): no PCR products
- PCR product from live versus killed Salmonella Typhimurium ([3]; dilution 1:10): no PCR products
- PCR product from live versus killed Salmonella Typhimurium ([3]; dilution 1:100): signal from live but not from killed samples
- Cytotoxicity (Description) ([4]; Table 1): noncytotoxic.
- Cytotoxicity [4, 7]: noncytotoxic
- Hazard [4, 7]: nonhazardous
- Mutagenicity [4, 7]: nonmutagenic
- Stability under normal light ([5]; Table 1, normal light): light (photostable).
- Stability ([5]; Table 1): stable
- Stability ([5]; general statement): extremely stable

Compound: ethidium monoazide bromide [EMA]
- Blocking of amplification of DNA from dead bacteria [1]: can block the amplification of DNA from dead bacteria
- Penetration into E. coli and blocking of PCR amplification [1]: penetrates only live E. coli
- Blocking of amplification of DNA from dead bacteria [2]: can block the amplification of DNA from dead bacteria
- Blocking of amplification of DNA from dead bacteria [3]: can block the amplification of DNA from dead bacteria
- Harmfulness ([4]; Table 1): Potentially harmful
- Solubility ([5]; Table 1): Soluble in DMF or EtOH.

Compound: CC[N+](C)(CC)CCC[n+]1c(-c2ccccc2)c2cc(N=[N+]=[N-])ccc2c2ccc(N)cc21 [PMA, propidium monoazide]
- Blocking of amplification of DNA from dead bacteria [1]: completely blocks the amplification of DNA from dead; also recorded: can block the amplification of DNA from dead bacteria
- Penetration into E. coli and blocking of PCR amplification [1]: penetrates only live E. coli
- Blocking of amplification of DNA from dead bacteria [2]: completely blocks the amplification of DNA from dead; also recorded: can block the amplification of DNA from dead bacteria
- Blocking of amplification of DNA from dead bacteria [3]: completely blocks the amplification of DNA from dead; also recorded: can block the amplification of DNA from dead bacteria
- Effect of PMA combined with light exposure compared with PMA only [6]: not much different from using only PMA
- Cytotoxicity (Description) ([4]; Table 1): substantially lower

Reference: patent US9434976B2, “Modification of sample preparation to differentiate live and dead bacteria by polymerase chain reaction assay” (priority 2013, dated 2016)
